The target in this assay is ASK1 kinase (Homo sapiens (Human), UniProt Q99683). Briefly: HTRF KinEASE assay of ASK1 kinase inhibition. The class given is biochemical. The note with it: HTRF KinEASE-STK TR-FRET; 5 nM ASK1, 1 uM STK3 peptide substrate, 100 uM ATP, 3 hours. The procedure:
The ability (IC50) of compounds to inhibit ASK1 kinase activity was determined by HTRF® KinEASE™ Assay System.
ASK1 was purchased from Thermofisher (Catalogue #PV4011), ATP was purchased from Sigma (Catalogue #A7699), HTRF® KinEASE™ Assay System was obtained from Cisbio (Bedford, Mass.). ½ Area plate was purchased from Perkin Elmer (Catalogue # #6005560). HTRF® KinEASE™-STK is a generic method for measuring serine/threonine kinase activities using a time-resolved fluorescence resonance energy transfer (TR-FRET) immunoassay. The IC50 value for each compound was determined in the presence of compound (various concentration from 0 to 10 μM) and a fixed amount of ATP and peptide substrates. The test compound, 1 uM STK3 peptide substrate, and 5 nM of ASK1 kinase are incubated with kinase reaction buffer containing 50 mM HEPES pH 7.5, 0.01% BRIJ-35, 10 mM MgCl2, and 1 mM EGTA for 30 minutes. 100 uM ATP is added to start kinase reaction and incubated for 3 hours. The STK3-antibody labeled with Eu^3+-Cryptate and 125 nM streptavidin-XL665 are mixed in a single addition with stop reagents provided by the Cisbio kit used to stop the kinase reaction. Fluorescence is detected using an Envision Multilabeled 2014 reader from PerkinElmer. The Fluorescence is measured at 615 nm (Cryptate) and 665 nm (XL665) and a ratio of 665 nm/615 nm is calculated for each well. The resulting TR-FRET is proportional to the phosphorylation level. Staurosporine was used as the positive control. IC50 was determined by XLfit 5.3.
By using above method, the inhibition of ASK1 was tested for the compound of formula (I). IC50 ranges are as follows: A<1 nM; 1 nM<B<10 nM; C>10 nM.
ASK1 kinase, sequence (Q99683 whole entry): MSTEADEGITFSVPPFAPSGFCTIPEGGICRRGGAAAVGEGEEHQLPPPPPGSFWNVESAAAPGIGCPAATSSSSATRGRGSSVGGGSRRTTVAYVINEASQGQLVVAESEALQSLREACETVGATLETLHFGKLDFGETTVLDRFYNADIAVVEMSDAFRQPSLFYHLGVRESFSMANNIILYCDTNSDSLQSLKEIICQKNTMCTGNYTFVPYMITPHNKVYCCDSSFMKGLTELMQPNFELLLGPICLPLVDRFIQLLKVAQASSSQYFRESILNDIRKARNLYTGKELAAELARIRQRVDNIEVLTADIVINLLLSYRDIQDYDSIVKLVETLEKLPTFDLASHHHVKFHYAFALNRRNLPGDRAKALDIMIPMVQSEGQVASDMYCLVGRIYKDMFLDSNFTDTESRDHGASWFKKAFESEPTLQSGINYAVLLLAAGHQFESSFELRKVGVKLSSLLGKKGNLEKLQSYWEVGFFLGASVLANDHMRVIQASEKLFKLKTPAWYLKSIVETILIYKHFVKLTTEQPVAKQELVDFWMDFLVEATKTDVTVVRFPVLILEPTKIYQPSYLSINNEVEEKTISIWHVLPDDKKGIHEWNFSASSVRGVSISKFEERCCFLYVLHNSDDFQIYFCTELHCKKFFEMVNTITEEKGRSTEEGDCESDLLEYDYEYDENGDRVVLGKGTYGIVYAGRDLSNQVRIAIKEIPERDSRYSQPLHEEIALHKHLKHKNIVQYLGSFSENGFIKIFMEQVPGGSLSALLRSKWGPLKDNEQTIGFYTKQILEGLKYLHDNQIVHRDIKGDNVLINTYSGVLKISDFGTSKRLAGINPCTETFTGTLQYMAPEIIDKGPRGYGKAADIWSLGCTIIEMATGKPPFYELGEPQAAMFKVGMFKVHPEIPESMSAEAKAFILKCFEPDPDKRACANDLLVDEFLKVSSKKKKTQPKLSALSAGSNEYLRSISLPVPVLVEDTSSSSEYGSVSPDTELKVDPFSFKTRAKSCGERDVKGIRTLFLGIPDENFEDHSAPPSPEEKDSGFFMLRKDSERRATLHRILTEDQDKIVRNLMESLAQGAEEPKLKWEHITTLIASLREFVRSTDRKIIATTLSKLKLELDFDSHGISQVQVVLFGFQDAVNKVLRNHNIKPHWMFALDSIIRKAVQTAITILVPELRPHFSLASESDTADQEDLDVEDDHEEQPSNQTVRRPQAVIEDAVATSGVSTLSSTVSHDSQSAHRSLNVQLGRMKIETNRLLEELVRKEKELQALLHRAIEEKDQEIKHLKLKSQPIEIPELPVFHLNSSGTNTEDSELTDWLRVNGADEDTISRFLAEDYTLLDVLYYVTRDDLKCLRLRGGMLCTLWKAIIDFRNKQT
Broadly, the IC50 is the concentration needed to halve the response being measured. A lower IC50 goes with greater potency. `Cc1cc(F)c(C(=O)Nc2cccc(-c3nncn3[C@H](C)CO)n2)cc1C1CC1NC(=O)C(C)(C)C` (some centres unmarked) [Example 29]: the IC50 lay within 1 to 10 nM.

In turn, `Cc1cc(F)c(C(=O)Nc2cccc(-c3nncn3C(C)C)n2)cc1C1CC1C(=O)N1CCC(F)(F)C1` (centres unmarked) [Example 12] had an IC50 greater than 10 nM.

For `Cc1cc(F)c(C(=O)Nc2cccc(-c3nncn3[C@H](C)CO)n2)cc1C1CC1NC(=O)OCC(F)(F)F` (some centres unmarked) [Example 25], the IC50 is greater than 10 nM.

Consider `COc1cc(C)c(C2CC2NC(=O)C(C)(C)C)cc1C(=O)Nc1cccc(-c2nncn2C(C)C)n1` (centres unmarked) [Example 23], for which the IC50 lay within 1 to 10 nM.

On to `Cc1cc(F)c(C(=O)Nc2cccc(-c3nncn3[C@H](C)CO)n2)cc1C1CC1NS(=O)(=O)CCC(F)(F)F` (some centres unmarked) [Example 27], for which the IC50 is 1 to 10 nM.

Consider `Cc1cnc(C(=O)Nc2cccc(-c3nncn3C(C)C)n2)cc1C1CC1NC(=O)OC(C)(C)C` (centres unmarked) [Example 8, tert-butyl (2-(2-((6-(4-isopropyl-4H-1,2,4-triazol-3-yl)pyridin-2-yl)carbamoyl)-5-methylpyridin-4-yl)cyclopropyl)carbamate], for which the IC50 was greater than 10 nM.

On to `CCOC(=O)C1CC1c1cc(C(=O)Nc2cccc(-c3nncn3C(C)C)n2)c(F)cc1C` (centres unmarked) [Example 1, ethyl 2-(4-fluoro-5-((6-(4-isopropyl-4H-1,2,4-triazol-3-yl)pyridin-2-yl)carbamoyl)-2-methylphenyl)cyclopropane-1-carboxylate], for which the IC50 fell in the range of 1 to 10 nM.

In turn, `Cc1cnc(C(=O)Nc2cccc(-c3nncn3C(C)C)n2)cc1C1CC1NC(=O)OCC(F)(F)F` (centres unmarked) [Example 19] gave an IC50 greater than 10 nM.

Take `COc1cc(C)c(C2CC2NC(=O)c2ccc(F)cc2)cc1C(=O)Nc1cccc(-c2nncn2C(C)C)n1` (centres unmarked) [Example 22]: the IC50 lay within 1 to 10 nM.

`Cc1cc(F)c(C(=O)Nc2cccc(-c3nncn3C(C)C)n2)cc1C1CC1NC(=O)N(C)CCC(F)(F)F` (centres unmarked) [Example 13] had an IC50 greater than 10 nM.

For `Cc1cnc(C(=O)Nc2cccc(-c3nnnn3[C@H](C)CO)n2)cc1C1CC(NC(=O)OC(C)(C)C)C1` (stereo partly drawn) [Example 9, tert-butyl (R)-(3-(2-((6-(1-(1-hydroxypropan-2-yl)-1H-tetrazol-5-yl)pyridin-2-yl)carbamoyl)-5-methylpyridin-4-yl)cyclobutyl)carbamate], the IC50 is greater than 10 nM.

Turning to `Cc1cc(F)c(C(=O)Nc2cccc(-c3nncn3C(C)C)n2)cc1C1CC1C(=O)NC1CC1` (centres unmarked) [Example 3, 5-(2-(cyclopropylcarbamoyl)cyclopropyl)-2-fluoro-N-(6-(4-isopropyl-4H-1,2,4-triazol-3-yl)pyridin-2-yl)-4-methylbenzamide], the IC50 was greater than 10 nM.

The molecule `Cc1cc(F)c(C(=O)Nc2cccc(-c3nncn3C(C)C)n2)cc1C1CC1NC(=O)C(C)(C)C` (centres unmarked) [Example 14] returned an IC50 greater than 10 nM.

Turning to `Cc1cc(F)c(C(=O)Nc2cccc(-c3nncn3C(C)C)n2)cc1C1CC1NS(=O)(=O)C1CC1` (centres unmarked) [Example 11], the IC50 is 1 to 10 nM.

`Cc1cc(F)c(C(=O)Nc2cccc(-c3nncn3[C@H](C)CO)n2)cc1C1CC1C(=O)N1CCC(F)(F)C1` (some centres unmarked) [Example 24] registered an IC50 of 1 to 10 nM.

`COc1cc(C)c(C2CC2NC(=O)N(C)CCC(F)(F)F)cc1C(=O)Nc1cccc(-c2nncn2C(C)C)n1` (centres unmarked) [Example 18] showed an IC50 of 1 to 10 nM.

As for `Cc1cc(F)c(C(=O)Nc2cccc(-c3nncn3C(C)C)n2)cc1C1CC1NS(=O)(=O)N(C)C` (centres unmarked) [Example 7, 5-(2-((N,N-dimethylsulfamoyl)amino)cyclopropyl)-2-fluoro-N-(6-(4-isopropyl-4H-1,2,4-triazol-3-yl)pyridin-2-yl)-4-methylbenzamide], the IC50 is greater than 10 nM.

Regarding `Cc1cc(F)c(C(=O)Nc2cccc(-c3nncn3C(C)C)n2)cc1C1CC1NC(=O)OCC(F)(F)F` (centres unmarked) [Example 10], the IC50 is 1 to 10 nM.

Regarding `Cc1cc(F)c(C(=O)Nc2cccc(-c3nncn3[C@H](C)CO)n2)cc1C1CC1NC(=O)N(C)CCC(F)(F)F` (some centres unmarked) [Example 26], the IC50 fell in the range of 1 to 10 nM.

`CCOC(=O)C1CC1c1cc(C(=O)Nc2cccc(-c3nncn3C(C)C)n2)ncc1C` (centres unmarked) [Example 15] displayed a concentration for half-maximal inhibition (IC50) of 1 to 10 nM.

With `Cc1cc(F)c(C(=O)Nc2cccc(-c3nncn3C(C)C)n2)cc1C1CC1NC(=O)OC(C)(C)C` (centres unmarked) [Example 4, tert-butyl (2-(4-fluoro-5-((6-(4-isopropyl-4H-1,2,4-triazol-3-yl)pyridin-2-yl)carbamoyl)-2-methylphenyl)cyclopropyl)carbamate], the IC50 is 1 to 10 nM.

For `Cc1cc(F)c(C(=O)Nc2cccc(-c3nncn3C(C)C)n2)cc1C1CC1NC(=O)N1CCC(F)(F)C1` (centres unmarked) [Example 5, 3,3-difluoro-N-(2-(4-fluoro-5-((6-(4-isopropyl-4H-1,2,4-triazol-3-yl)pyridin-2-yl)carbamoyl)-2-methylphenyl)cyclopropyl)pyrrolidine-1-carboxamide], the IC50 was greater than 10 nM.

Molecule `COc1cc(C)c(C2CC2NS(=O)(=O)N(C)C)cc1C(=O)Nc1cccc(-c2nncn2C(C)C)n1` (centres unmarked) [Example 20] came in with an IC50 of 1 to 10 nM.

Molecule `COc1cc(C)c(C2CC2C(=O)N2CCC(F)(F)C2)cc1C(=O)Nc1cccc(-c2nncn2C(C)C)n1` (centres unmarked) [Example 16] registered an IC50 of 1 to 10 nM.

As for `COc1cc(C)c(C2CC2NS(=O)(=O)CCC(F)(F)F)cc1C(=O)Nc1cccc(-c2nncn2C(C)C)n1` (centres unmarked) [Example 21], the IC50 lay within 1 to 10 nM.

For `Cc1cc(F)c(C(=O)Nc2cccc(-c3nncn3[C@H](C)CO)n2)cc1C1CC1NS(=O)(=O)N(C)C` (some centres unmarked) [Example 28], the IC50 is 1 to 10 nM.

Turning to `Cc1cc(F)c(C(=O)Nc2cccc(-c3nncn3C(C)C)n2)cc1C1CC1C(=O)O` (centres unmarked) [Example 2, 2-(4-fluoro-5-((6-(4-isopropyl-4H-1,2,4-triazol-3-yl)pyridin-2-yl)carbamoyl)-2-methylphenyl)cyclopropane-1-carboxylic acid], the IC50 is greater than 10 nM.

In the case of `Cc1cc(F)c(C(=O)Nc2cccc(-c3nncn3C(C)C)n2)cc1C1CC1NC(=O)c1ccc(F)cc1` (centres unmarked) [Example 6, 2-fluoro-5-(2-(4-fluorobenzamido)cyclopropyl)-N-(6-(4-isopropyl-4H-1,2,4-triazol-3-yl)pyridin-2-yl)-4-methylbenzamide], the IC50 was greater than 10 nM.

`COc1cc(C)c(C2CC2NC(=O)OCC(F)(F)F)cc1C(=O)Nc1cccc(-c2nncn2C(C)C)n1` (centres unmarked) [Example 17]: the IC50 is 1 to 10 nM.
